This is an account of results in patent US20150086511A1, “SURVIVAL, DIFFERENTIATION AND STRUCTURAL INTEGRATION OF HUMAN NEURAL STEM CELLS GRAFTED INTO THE ADULT RAT SPINAL CORD” (NEURALSTEM, INC., priority 2005, published 2015).

Test [1] concerns SOD1-G93A mice grafted with human NSCs. Description: Graft rejection and human NSC graft survival under immunosuppressive regimens in SOD1-G93A mice (ICC for HNu, CD4, CD8, DX5, Iba-1). The conditions noted are these: compared to the double immunosuppressive regimen.
Experimental: Thus, five experimental groups were given different immunosuppressive treatments: the first group was treated with FK506 monotherapy (Prograf, Fujisawa Healthcare, Inc., Deerfield, Ill.) (2 μg/g/day, n=23); a second group was treated with a double immunosuppressive regimen combining FK506 and rapamycin (Calbiochem, La Jolla, Calif.) (1 μg/g/day each, n=21); a third group received triple immunosuppression with FK506, rapamycin, and MMF (CellCept, Roche, Nutley, N.J.) (1 μg/g/day each for FK506 and rapamycin, 100 μg/g/day for MMF, n=14); a fourth group was treated with CD4 antibodies (clone GK1.5, 20 μg/g/day, n=12); and a fifth group (n=10) was treated with FK506 plus rapamycin exactly as the second group, except that subjects were grafted with dead cells. Dead-cell grafts utilized cells that were exposed to repeated freezing-thawing and served to control for the potential therapeutic effects of immunosuppressants themselves on motor neuron disease. […] Males and females were randomly admixed in the various experimental groups to minimize a systemic effect of gender on disease progression and treatment response. […]
The test system of the next test is SOD1-G93A mice. Put plainly: Clinical outcomes (disease onset, life span, motor score) in SOD1-G93A mice grafted with human NSCs. The following applies: SOD1-G93A mice grafted with live NSCs, by immunosuppressive regimen.

For `COc1c(C)c2c(c(O)c1C/C=C(\C)CCC(=O)OCCN1CCOCC1)C(=O)OC2` [MMF, mycophenolate mofetil], the “effect of adding MMF to FK506 plus rapamycin on graft survival and infiltration by CD4/CD8 (+) cells or microglia/macrophages” value in test [1] is reported as “no apparent effects”.

On to `C=CC[C@@H]1/C=C(\C)C[C@H](C)C[C@H](OC)[C@H]2O[C@@](O)(C(=O)C(=O)N3CCCC[C@H]3C(=O)O[C@H](/C(C)=C/[C@@H]3CC[C@@H](O)[C@H](OC)C3)[C@H](C)[C@@H](O)CC1=O)[C@H](C)C[C@@H]2OC` [FK506], for which, in the test with SOD1-G93A mice, the average disease onset is 13.2±1.8 weeks and the life span came to 17.6±2.0 weeks.
